This is an account of results in publication PMC4734766, “Pentamidine Is Not a Permeant but a Nanomolar Inhibitor of the Trypanosoma brucei Aquaglyceroporin-2” (PLoS Pathogens, 2016).

Data set [1] has as its target T1, TbAQP2 (Trypanosoma brucei brucei, UniProt Q6ZXT3).
T1 sequence (Q6ZXT3 1-312): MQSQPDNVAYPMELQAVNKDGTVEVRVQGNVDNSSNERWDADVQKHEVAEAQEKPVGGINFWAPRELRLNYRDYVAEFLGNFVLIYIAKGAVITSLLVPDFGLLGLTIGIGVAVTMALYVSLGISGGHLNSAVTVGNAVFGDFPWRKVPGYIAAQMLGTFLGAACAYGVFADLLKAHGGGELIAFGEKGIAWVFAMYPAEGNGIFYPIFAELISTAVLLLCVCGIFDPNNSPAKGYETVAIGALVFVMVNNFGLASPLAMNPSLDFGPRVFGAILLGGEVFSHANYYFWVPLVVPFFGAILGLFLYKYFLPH
As to conditions: not told, pH 7.2.

The conditions of data set [2]: cited from earlier work.
Data set [3] deals with T1, TbAQP2.
The test system of data set [4] is T. brucei expressing mutant TbAQP2 (GFPAQP2 L264R). The data set is described as follows: alamarBlue EC50 assay, aqp2-null strain expressing GFP-TbAQP2 Leu264Arg. As to conditions: Trypanosoma brucei. On the technique in general: Resazurin is reduced to fluorescent resorufin, in cell work by metabolically active cells.
Protocol: Bloodstream-form T. brucei, Lister 427, MiTat 1.2, clone 221a and derivatives were maintained as previously described [2]; 2T1 [1] and aqp2 null strains [2] were also described previously. Strains were transfected using a Nucleofector apparatus (Lonza) in conjunction with cytomix and transformants were selected with hygromycin (2.5 μg ml^–1). ^GFPAQP expression was induced by exposing cells to 1 μg ml^–1 tetracycline for 48 h. EC50 assays were carried out using alamarBlue as described [44, 45].
For data set [5], the target named is T1, TbAQP2. The data set is described as follows: cell-based.
Data set [6] concerns yeast. As to conditions: cited from earlier work.
For data set [7], the target named is T2, TbAQP3 (Trypanosoma brucei brucei, UniProt Q6ZXT2). As to conditions: up to 500 μM pentamidine added 10 min prior to the assay.
For data set [8], the system named is yeast. The data set is described as follows: Phenotypic yeast growth assay, pentamidine susceptibility on YPG (glycerol) media. Type of data set: cell-based, Saccharomyces cerevisiae. To be noted: pentamidine isethionate 1 or 10 μg ml–1, compared with non-expressing and TbAQP3 expressing cells.
Data set [9] is classed as physicochemical. To be noted: prohibits a sufficiently concentrated gradient in the light-scattering assay. An excerpt: Next, we employed a biophysical light-scattering assay for TbAQP2 permeability. We expressed TbAQP2 in a yeast strain that lacks the endogenous aquaglyceroporin (Δfps1), prepared protoplasts, and challenged them by a hypertonic, test solute-containing buffer. In an initial rapid phase, the protoplasts will release water following the outward osmotic gradient and shrink as indicated by an increase in light scattering. In the second slower phase, volume will be regained if the test solute can pass TbAQP2 and enter the protoplasts. […] We used instead two pairs of test solutes, glycerol/3-aminopropane-1,2-diol and urea/formamidine, of which glycerol and urea are established permeants of TbAQP2 [11], whereas the respective partners are bioisosteric nitrogen-derivatives, which are positively charged at neutral pH (Fig 1F). […] Formamidine is too strong a base (pKa 13) to be amenable to deprotonation in aqueous solution. […] The lack of permeability for the charged compounds is not due to molecule size, because formamidine is even smaller than urea. […] We conclude that organic cations fail to traverse the TbAQP2 channel.

For data set [10], the target named is T1, TbAQP2. As to conditions: pH 5.5.
Data set [11] concerns the target T2, TbAQP3.
The test system of data set [12] is other AQPs. To be noted: covalent cysteine-modification; cited from earlier work.
Setting [13] is: IC50, inhibition of TbAQP2 glycerol permeability.

Where two headings read alike, the source gives them in different places.

T2 sequence (Q6ZXT2 whole entry): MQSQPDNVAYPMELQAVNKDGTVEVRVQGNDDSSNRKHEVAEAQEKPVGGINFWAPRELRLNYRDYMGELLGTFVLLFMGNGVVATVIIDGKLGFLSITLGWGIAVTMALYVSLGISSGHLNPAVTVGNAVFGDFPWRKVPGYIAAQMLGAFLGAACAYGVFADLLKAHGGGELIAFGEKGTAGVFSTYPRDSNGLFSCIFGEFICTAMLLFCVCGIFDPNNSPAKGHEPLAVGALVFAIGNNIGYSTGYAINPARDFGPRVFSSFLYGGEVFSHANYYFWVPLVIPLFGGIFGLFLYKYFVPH

What is called pKa is the pH at which an ionisable group is half protonated. As to `N=CN` [formamidine], the “permeability of TbAQP2 for the solute” value in data set [1] is reported as “did not pass”. In [2], the pKa is on record as 13.

One may read the EC50 as the concentration at which the effect is half-maximal. Read a high EC50 as a need for much substance. One may read the IC50 as the concentration needed to halve the response being measured. In the case of `N=C(N)c1ccc(OCCCCCOc2ccc(C(=N)N)cc2)cc1` [pentamidine], in data set [3] (not told), the “block of TbAQP2 glycerol permeability” value is “fully blocked”. Moreover, the “reduced affinity versus pH 7.2” value in data set [3] (pH 2.5) came out at 8 times; in data set [3] (pH 3.5), 3 times. Also, in [4], the EC50 stood at 0.103 µM. Besides, the IC50 in data set [5] (setting [13]) was 0.13 µM; in [5] (IC50, pentamidine inhibition of TbAQP2, pH 2.5), 1.1 µM; in data set [5] (IC50, pentamidine inhibition of TbAQP2, pH 3.5) it was 0.45 µM. In addition, the cytotoxicity to yeast entry in data set [6] is reported as “cytotoxic”. Also, in data set [2], the pKa is 12.1. Besides, the “effect on glycerol permeability of TbAQP3” value in data set [7] is reported as “unaffected”. Also, in data set [8], the “pentamidine susceptibility of yeast on expression of TbAQP2” value was “did not increase the susceptibility”. Moreover, the solubility result in data set [9] was “low solubility”.

On to `CCCOc1ccc(C(=N)N)cc1` [4-propoxy-benzamidine], for which the “maximal inhibition of TbAQP2” value in data set [3] is given as 60%. For the same molecule, inhibition in data set [5] (setting [13]) was half-maximal at 2800 µM (IC50).

Turning to `NC(N)=O` [urea], in data set [1], the “permeability of TbAQP2 for the solute” value is on record as “showed permeability”.

`N#Cc1ccc(OCCCCCOc2ccc(C(=N)N)cc2)cc1` [nitrile-pentamidine] came in with a concentration for half-maximal inhibition (IC50) in data set [5] (setting [13]) of 0.18 µM.

Take `OCC(O)CO` [glycerol]: in [1], the “permeability of TbAQP2 for the solute” value was “showed permeability”.

Regarding `COc1ccc(C(=N)N)cc1` [4-methoxy-benzamidine], in data set [3], the “inhibition of TbAQP2 (in words)” value is given as “incapable of inhibiting TbAQP2”.

For `CN` [methylammonium], the “permeability of TbAQP2 for the positively charged compound form” value in data set [10] (not told) is recorded as “impermeable”. Moreover, the “permeability of TbAQP3 for the positively charged compound form” value in data set [11] (50 mM methylammonium, pH 5.5, yeast survival) is reported as “impermeable”.

In the case of `N` [NH4 ^+, ammonium], in data set [10], the “NH4+ uptake on TbAQP2 expression” value is reported as “neither expression of TbAQP2 nor TbAQP3 enhanced the NH4 ^+ uptake”. For the same molecule, in [11] (pH 5.5, NH4+ as sole nitrogen source, versus cells without ammonium transporter), the “NH4+ uptake on TbAQP3 expression” value is listed as “neither expression of TbAQP2 nor TbAQP3 enhanced the NH4 ^+ uptake”.

Regarding `NCC(O)CO` (stereo not shown) [3-aminopropane-1,2-diol], in [1], the “permeability of TbAQP2 for the solute” value is recorded as “did not pass”. In addition, the pKa in [2] is 9.2.

`CCCCCOc1ccc(C(=N)N)cc1` [4-pentoxy-benzamidine] came in with a half-maximal inhibitory concentration (IC50) in data set [5] (setting [13]) of 87 µM.

For the molecule `[Cl][Au]([Cl])[Cl].c1cnc2c(c1)ccc1cccnc12` [auphen], the IC50 in data set [12] was 0.8 µM.
